Measured values published in patent US20230416237A1, “AMIDE COMPOUND, PHARMACEUTICAL COMPOSITION AND USE THEREOF” (SHENZHEN BO LI JIAN MEDICINE CO., LTD., priority 2020, published 2023).

What was measured:
JAK1 = JAK1 (Homo sapiens (Human), UniProt P23458); assay: JAK1 inhibitory activity, mobility shift assay, 1 mM ATP; assay type: biochemical; conditions: 1 mM ATP; Table 7
Description: (§1) The JAK1 inhibitory activity and the JAK2 inhibitory activity of the amide compounds provided in the above examples were tested by the method below.
(§2) Specific steps are described below. • 1. A 1× Kinase buffer was formulated. • 2. Concentration gradients of the compound were formulated: a test compound with an initial concentration of 10000 nM (JAK1) or 30000 nM (JAK2) was diluted in a 384-well plate to a 100% DMSO solution with a 100-fold final concentration, wherein the compound was diluted by a fold of 3 to 10 concentrations. 250 nL of the compound with the 100-fold final concentration was transferred with a dispenser Echo 550 to the target plate. • 3. A kinase solution with a 2.5-fold final concentration was prepared with the 1× Kinase buffer. • 4. […] The plate was centrifuged at 1000 rpm for 30 s, shaken and uniformly mixed, and incubated for 10 min at room temperature. • 6. A mixed solution of ATP (the final concentration of ATP=1 mM) and Kinase substrate with a 5/3-fold final concentration was formulated with the 1× Kinase buffer. • 7. 15 μL of the mixed solution of ATP and the substrate with the 5/3-fold final concentration was added to initiate the reaction. • 8. The 384-well plate was centrifuged at 1000 rpm for 30 s, shaken and uniformly mixed, and incubated for respective times at room temperature. • 9. The kinase reaction was stopped by adding 30 μL of a detection termination solution, and the plate was centrifuged at 1000 rpm for 30 s and shaken and uniformly mixed. • 10. The conversion rate was read with Caliper EZ Reader and the half maximal inhibitory concentration (IC50) was calculated.

JAK2 = JAK2 (Homo sapiens (Human), UniProt O60674); assay: JAK2 inhibitory activity, mobility shift assay, 1 mM ATP; assay type: biochemical; conditions: Table 7
Description: as §1, §2

Chain of JAK1 (P23458 850-1154): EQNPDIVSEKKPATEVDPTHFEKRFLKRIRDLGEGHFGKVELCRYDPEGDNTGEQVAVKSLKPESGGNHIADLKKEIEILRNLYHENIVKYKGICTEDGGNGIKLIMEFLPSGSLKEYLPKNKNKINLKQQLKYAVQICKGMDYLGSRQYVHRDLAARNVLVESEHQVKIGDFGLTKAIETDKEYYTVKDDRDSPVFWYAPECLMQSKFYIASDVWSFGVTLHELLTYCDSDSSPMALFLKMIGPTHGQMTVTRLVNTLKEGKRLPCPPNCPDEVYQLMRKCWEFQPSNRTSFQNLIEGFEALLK
Chain of JAK2 (O60674 826-1132): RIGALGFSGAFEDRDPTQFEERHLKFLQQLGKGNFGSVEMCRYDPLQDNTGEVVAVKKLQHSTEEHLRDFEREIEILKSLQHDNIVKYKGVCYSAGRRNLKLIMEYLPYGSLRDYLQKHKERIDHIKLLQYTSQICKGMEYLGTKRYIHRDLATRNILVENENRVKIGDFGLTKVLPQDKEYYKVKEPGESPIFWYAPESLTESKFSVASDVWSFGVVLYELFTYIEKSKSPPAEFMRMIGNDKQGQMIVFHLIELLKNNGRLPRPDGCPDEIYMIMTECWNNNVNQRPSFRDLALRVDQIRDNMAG

| Compound | IC50 (JAK1) [nM] | IC50 (JAK2) [nM] |
| --- | --- | --- |
| COc1nn(C)cc1Nc1ncc(F)c(-c2c[nH]c3c(NC(=O)[C@@H]4CCCN4S(C)(=O)=O)cccc23)n1 [Example 1, (S)—N-(3-(5-fluoro-2-((3-methoxy-1-methyl-1H-pyrazol-4-yl)amino)pyrimidin-4-yl)-1H-indol-7-yl)-1-(methanesulfonyl)pyrrolidine-2-carboxamide] | 73 | 2820 |
| CCS(=O)(=O)N1CCC[C@H]1C(=O)Nc1cccc2c(-c3nc(Nc4cn(C)nc4OC)ncc3F)c[nH]c12 [Example 2, (S)-N-(3-(5-fluoro-2-((3-methoxy-1-methyl-1H-pyrazol-4-yl)amino)pyrimidin-4-yl)-1H-indol-7-yl)-1-(ethanesulfonyl)pyrrolidine-2-carboxamide] | 137 | 1850 |
| COc1nn(C)cc1Nc1ncc(C)c(-c2c[nH]c3c(NC(=O)[C@@H]4CCCN4S(C)(=O)=O)cccc23)n1 [Example 3, (S)-N-(3-(2-((3-methoxy-1-methyl-1H-pyrazol-4-yl)amino)-5-methylpyrimidin-4-yl)-1H-indol-7-yl)-1-(methanesulfonyl)pyrrolidine-2-carboxamide] | 70 | 2210 |
| COc1nn(C)cc1Nc1ncc(Cl)c(-c2c[nH]c3c(NC(=O)[C@@H]4CCCN4S(C)(=O)=O)cccc23)n1 [Example 4, (S)-N-(3-(5-chloro-2-((3-methoxy-1-methyl-1H-pyrazol-4-yl)amino)pyrimidin-4-yl)-1H-indol-7-yl)-1-(methanesulfonyl)pyrrolidine-2-carboxamide] | 53 | 652 |
| COc1nn(C)cc1Nc1ncc(F)c(-c2c[nH]c3c(NC(=O)[C@H]4CCCN4C4CCNCC4)cccc23)n1 [Example 5, (R)—N-(3-(5-fluoro-2-((3-methoxy-1-methyl-1H-pyrazol-4-yl)amino)pyrimidin-4-yl)-1H-indol-7-yl)-1-(piperidin-4-yl)pyrrolidine-2-carboxamide] | 55 | 4300 |
| COc1nn(C)cc1Nc1ncc(F)c(-c2c[nH]c3c(NC(=O)[C@H]4C[C@H](F)CN4C4CCNCC4)cccc23)n1 [Example 6, (2R,4S)-4-fluoro-N-(3-(5-fluoro-2-((3-methoxy-1-methyl-1H-pyrazol-4-yl)amino)pyrimidin-4-yl)-1H-indol-7-yl)-1-(piperidin-4-yl)pyrrolidine-2-carboxamide] | 68 | 4000 |
| COc1nn(C)cc1Nc1ncc(F)c(-c2c[nH]c3c(NC(=O)[C@H]4C[C@@H](F)CN4C4CCNCC4)cccc23)n1 [Example 7, (2R,4R)-4-fluoro-N-(3-(5-fluoro-2-((3-methoxy-1-methyl-1H-pyrazol-4-yl)amino)pyrimidin-4-yl)-1H-indol-7-yl)-1-(piperidin-4-yl)pyrrolidine-2-carboxamide] | 152 | 4410 |

Now from value to compound:

| IC50 (JAK1) [nM] | IC50 (JAK2) [nM] | Compound |
| --- | --- | --- |
| 108 | 10200 | COc1nn(C)cc1Nc1nccc(-c2c[nH]c3c(NC(=O)[C@H]4C[C@H](F)CN4[C@@H]4CCNC4)cccc23)n1 (single isomer, unassigned) [Example 18] |
| 368 | 15500 | COc1nn(C)cc1Nc1nccc(-c2c[nH]c3c(NC(=O)[C@H]4C[C@H](F)CN4[C@H]4CCNC4)cccc23)n1 (single isomer, unassigned) [Example 19] |
| 120 | 21500 | COc1nn(C)cc1Nc1nccc(-c2c[nH]c3c(NC(=O)[C@H]4C[C@H](F)CN4[C@@H]4CCN(C)C4)cccc23)n1 (single isomer, unassigned) [Example 20] |
| 262 | > 30000 | COc1nn(C)cc1Nc1nccc(-c2c[nH]c3c(NC(=O)[C@H]4C[C@H](F)CN4[C@H]4CCN(C)C4)cccc23)n1 (single isomer, unassigned) [Example 21] |
| 1170 | 10500 | COc1nn(C)cc1Nc1ncc(F)c(-c2c[nH]c3c(NC(=O)[C@H]4C[C@@H](OC)CN4C4CCNCC4)cccc23)n1 [Example 8, (2R,4R)-N-(3-(5-fluoro-2-((3-methoxy-1-methyl-1H-pyrazol-4-yl)amino)pyrimidin-4-yl)-1H-indol-7-yl)-4-methoxy-1-(piperidin-4-yl)pyrrolidine-2-carboxamide] |
